{
  "source": "patent US7365231B2",
  "about": "“Compound with antitumor activity and preparation method therefor” (National Taiwan University of Science & Technology, priority 2005, dated 2008)",
  "key": {"colon (Colo 205) cancer": {"test_system": "colon (Colo 205) cancer", "conditions": "Colo 205 in SCID mice; cited from earlier work"}, "[1]": {"test_system": "human colon cancer cells xenografts", "conditions": "cited from earlier work"}, "human colon cancer cells": {"test_system": "human colon cancer cells", "conditions": "cited from earlier work"}, "colon cancer cell lines": {"test_system": "colon cancer cell lines", "conditions": "NCI Anticancer Drug Screen; cited from earlier work"}, "[2]": {"conditions": "xenograft study; cited from earlier work"}, "[3]": {"test_system": "human gastric (SC-M1) cancer", "conditions": "SC-M1 in SCID mice; cited from earlier work"}},
  "data": [
    {"compound": "Nc1ccc(Oc2ccc(Oc3ccc(N)c(O)c3)cc2)cc1O", "note": "[Example 8, 1,4-Bis(4-amino-3-hydroxyphenoxy)benzene]", "values": [
      {"measurement": "melting point", "value": "> 220 °C (dec.)"}
    ]},
    {"compound": "dimethyladamantylmaleimide [DMAMI]", "values": [
      {"measurement": "apoptosis and tumor growth", "setting": "colon (Colo 205) cancer", "value": "induce apoptosis and inhibit the growth"}
    ]},
    {"compound": "1,6-bis(4-(4-amino-3-hydroxyphenoxy)phenyl)diamantane [DPD]", "values": [
      {"measurement": "in vivo anticancer activity", "setting": "[1]", "value": "has in vivo anticancer activity"},
      {"measurement": "cell cycle arrest and differentiation", "setting": "human colon cancer cells", "value": "induced G0/G1 arrest and differentiation"},
      {"measurement": "anticancer activity on colon cancer cell lines", "setting": "colon cancer cell lines", "value": "marked anticancer activities"},
      {"measurement": "acute toxicity", "setting": "[2]", "value": "no obvious acute toxicity"}
    ]},
    {"compound": "Nc1ccc(Oc2ccccc2Oc2ccc(N)c(O)c2)cc1O", "note": "[Example 10, 1,2-Bis(4-amino-3-hydroxyphenoxy)benzene]", "values": [
      {"measurement": "melting point", "value": "> 180 °C (dec.)"}
    ]},
    {"compound": "O=C1C=CC(=O)N1C12CC3CC(CC(C3)C1)C2", "note": "[AMI, N-1-adamantylmaleimide]", "values": [
      {"measurement": "apoptosis and tumor growth", "setting": "[3]", "value": "induce apoptosis and inhibit the growth"}
    ]}
  ]
}
